The values below come from patent US4271170A, “Pyridine derivatives” (Ono Pharmaceutical Co., Ltd.,, priority 1978, dated 1981).

Structures can show the parent of a compound that is named as a salt.

The first assay deals with T1, thromboxane synthetase from rabbit platelet microsomes (Oryctolagus cuniculus, UniProt G1TAZ9).
T1 construct: thromboxane synthetase from rabbit platelet microsomes; from tissue; host or cells: rabbit platelet microsomes
T1 sequence (G1TAZ9 1-530): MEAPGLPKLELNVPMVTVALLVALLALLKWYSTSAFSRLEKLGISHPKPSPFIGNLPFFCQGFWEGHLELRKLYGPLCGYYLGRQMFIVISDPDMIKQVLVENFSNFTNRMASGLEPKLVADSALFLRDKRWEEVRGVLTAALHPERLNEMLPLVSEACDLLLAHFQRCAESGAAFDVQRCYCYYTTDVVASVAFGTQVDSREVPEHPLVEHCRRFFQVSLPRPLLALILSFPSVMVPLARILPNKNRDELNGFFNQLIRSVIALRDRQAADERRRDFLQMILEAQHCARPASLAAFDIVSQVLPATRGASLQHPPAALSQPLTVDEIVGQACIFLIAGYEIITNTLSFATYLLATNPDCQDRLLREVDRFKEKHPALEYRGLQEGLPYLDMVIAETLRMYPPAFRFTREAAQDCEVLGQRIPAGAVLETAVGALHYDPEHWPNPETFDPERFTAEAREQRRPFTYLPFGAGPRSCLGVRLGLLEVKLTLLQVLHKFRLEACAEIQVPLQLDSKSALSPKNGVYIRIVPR
The experiment in a line: inhibition of thromboxane synthetase from rabbit platelet microsomes (conversion of prostaglandin H2 into thromboxane B2). The format is biochemical.
Details: not given
As for `CCOC(=O)C(C)Oc1ccc(Cc2cccnc2)cc1` (centres unmarked) [2-[4-(3-Pyridylmethyl)phenoxy]propionic acid ethyl ester], the IC50 was in the range of 3 to 650 nM.

The assay is the same for the next values; noted with them: rabbit platelet microsomes; one common range stated for all listed compounds; read-out: molar concentration producing a 50% inhibition of thromboxane synthetase.
Regarding `C/C(=C\c1ccc(C(C)c2cccnc2)cc1)C(=O)O` (centres unmarked) [(E)-2-Methyl-3-[4-(1-3'-pyridylethyl)phenyl]acrylic acid hydrochloride], the IC50 fell in the range of 3 to 650 nM.
Consider `O=C(O)c1ccc(Cc2cccnc2)cc1` [4-(3-Pyridylmethyl)benzoic acid hydrochloride], for which the IC50 fell in the range of 3 to 650 nM.
As for `C/C(=C\c1ccc(Cc2cnccc2C)cc1)C(=O)O` [(E)-2-Methyl-3-[4-(4-methyl-3-pyridylmethyl)phenyl]acrylic acid hydrochloride], the IC50 fell in the range of 3 to 650 nM.
Regarding `C/C(=C\C(=O)O)c1ccc(Cc2cccnc2)cc1` [(E)-3-[4-(3-Pyridylmethyl)phenyl]-2-butenoic acid hydrochloride], the IC50 fell in the range of 3 to 650 nM.
Regarding `CCOC(=O)COc1ccc(Cc2cccnc2)cc1` [4-(3-Pyridylmethyl)phenoxyacetic acid ethyl ester], the IC50 was 3 to 650 nM.
Same read-out and setting: the same measure for `CCOC(=O)/C(C)=C/c1ccc(Cc2cccnc2)c(C)c1` [(E)-2-Methyl-3-[3-Methyl-4-(3-pyridylmethyl)phenyl]acrylic acid ethyl ester]: 3 to 650 nM; for `O=C(O)/C=C/c1ccc(C(O)c2cccnc2)cc1` (centres unmarked) [(E)-3-[4-(3-Pyridylhydroxymethyl)phenyl]acrylic acid hydrochloride]: 3 to 650 nM; for `C/C(=C\c1ccc(Cc2cccnc2)s1)C(=O)O` [(E)-5-(3-Pyridylmethyl)-2-(2-carboxy-1-propenyl(thiophene hydrochloride]: 3 to 650 nM.
`CC(C)(Sc1ccc(Cc2cccnc2)cc1)C(=O)O` [2-Methyl-2-[4-(3-pyridylmethyl)phenylthio]propionic acid hydrochloride]: the IC50 is 3 to 650 nM.
For the compound `CC(Cc1ccc(Cc2cccnc2)cc1)C(=O)O` (centres unmarked) [2-Methyl-3-[4-(3-pyridylmethyl)phenyl]propionic acid hydrochloride], the IC50 was in the range of 3 to 650 nM.
The same measure, in the same setting: the value for `O=C(O)/C=C/c1ccc(Cc2cccnc2)cc1` [(E)-3-[4-(3-Pyridylmethyl)phenyl]acrylic acid hydrochloride] was 3 to 650 nM.
For `CCSC(=O)/C(C)=C/c1ccc(Cc2cccnc2)cc1` [(E)-2-Methyl-3-[4-(3-pyridylmethyl)phenyl]thioacrylic S-acid S-ethyl ester hydrochloride], the IC50 was 3 to 650 nM.
On the same count and under the same terms, the value for `CC(C)(Oc1ccc(Cc2cccnc2)cc1)C(=O)O` [2-Methyl-2-[4-(3-pyridylmethyl)phenoxy]propionic acid hydrochloride] was 3 to 650 nM; that for `C/C(=C\c1ccc(Cc2cccnc2)cc1)C(=O)Oc1cccc(C(F)(F)F)c1` [(E)-2-Methyl-3-[4-(3-pyridylmethyl)phenyl]acrylic acid 3-trifluoromethylphenyl ester] was 3 to 650 nM.
In the case of `Cc1cc(/C=C/C(=O)O)ccc1Cc1cccnc1` [(E)-3-[3-Methyl-4-(3-pyridylmethyl)phenyl]acrylic acid hydrochloride], the IC50 is 3 to 650 nM.
On to `O=C(O)/C(Br)=C/c1ccc(Cc2cccnc2)cc1` [(2)-2-Bromo-3-[4-(3-pyuridylemthyl)phenyl]acrylic acid hydrochloride], for which the IC50 fell in the range of 3 to 650 nM.
With `C/C(=C\c1ccc(Cc2cccnc2)cc1)C(=O)O` [(E)-2-Methyl-3-[4-(3-pyridylmethyl)pehnyl]acrylic acid hydrochloride], the IC50 fell in the range of 3 to 650 nM.
For `CC/C(=C\c1ccc(Cc2cccnc2)cc1)C(=O)O` [(E)-2-Ethyl-3-[4-(3-pyridylmethyl)phenyl]acrylic acid hydrochloride], the IC50 was in the range of 3 to 650 nM.
The same measure, in the same setting: the value for `CCOC(=O)C(C)Cc1ccc(Cc2cccnc2)cc1` (centres unmarked) [2-Methyl-3-[4-(3-pyridylmethyl)phenyl]propionic acid ethyl ester] was 3 to 650 nM.
For the compound `O=C(O)COc1ccc(Cc2cccnc2)cc1` [2-[4-(3-Pyridylmethyl)phenoxy]acetic acid hydrochloride], the IC50 lay within 3 to 650 nM.
On to `C/C(=C\c1ccc(Cc2cccnc2)cc1)C(=O)Oc1ccccc1` [(E)-2-Methyl-3-[4-(3-pyridylmethyl)phenyl]acrylic acid phenyl ester], for which the IC50 fell in the range of 3 to 650 nM.
With `O=C(O)Cc1ccc(Cc2cccnc2)cc1` [4-(3-Pyridylmethyl)phenylacetic acid hydrochloride], the IC50 was 3 to 650 nM.
For the compound `CC(Cc1ccc(C(C)c2cccnc2)cc1)C(=O)O` (centres unmarked) [2-Methyl-3-[4-(1-3'-pyridylethyl)phenyl]propionic acid hydrochloride], the IC50 is 3 to 650 nM.
In the case of `O=C(O)CCc1ccc(Cc2cccnc2)cc1` [3-[4-(3-Pyridylmethyl)phenyl]propionic acid hydrochloride], the IC50 fell in the range of 3 to 650 nM.
For `O=C(O)/C=C/c1ccc(Cc2cccnc2)s1` [(E)-5-(3-Pyridylmethyl)-2-(2-carboxyvinyl)thiophene hydrochloride], the IC50 was 3 to 650 nM.
As to `COC(=O)/C(Br)=C/c1ccc(Cc2cccnc2)cc1` [(Z)-2-Bromo-3-[4-(3-pyridylmethyl)phenyl]acrylic acid methyl ester], the IC50 was in the range of 3 to 650 nM.
Still for that read-out and setting: the same measure for `Oc1ccc(Cc2cccnc2)cc1` [4-(3-pyridylmethyl)phenol hydrochloride, 4-(3-Pyridylmethyl)phenol hydrochloride]: 3 to 650 nM.
Same read-out and setting: the same measure for `C/C(=C\c1cccc(Cc2cccnc2)c1)C(=O)O` [(E)-2-Methyl-3-[3-(3-pyridylmethyl)phenyl]acrylic acid hydrochloride]: 3 to 650 nM.
On to `CC(C)(Cc1ccc(Cc2cccnc2)cc1)C(=O)O` [2,2-Dimethyl-3-[4-(3-pyridylmethyl)phenyl]propionic acid hydrochloride], for which the IC50 is 3 to 650 nM.
In the case of `CCOC(=O)CCc1ccc(Cc2cccnc2)cc1` [3-[4-(3-Pyridylmethyl)phenyl]propionic acid ethyl ester], the IC50 was in the range of 3 to 650 nM.
Same read-out and setting: the value for `CCOC(=O)/C(C)=C/c1cccc(Cc2cccnc2)c1` [(E)-2-Methyl-3-[3-(3-pyridylmethyl)phenyl]acrylic acid ethyl ester] was 3 to 650 nM.
`CC(CC(=O)O)c1ccc(Cc2cccnc2)cc1` (centres unmarked) [3-[4-(3-Pyridylmethyl)phenyl]butyric acid hydrochloride]: the IC50 lay in the range of 3 to 650 nM.
For `C/C(=C\c1ccc(Cc2cccnc2)cc1)C(=O)OCc1ccc(-c2ccccc2)cc1` [(E)-2-Methyl-3-[4-(3-pyridylmethyl)phenyl]acrylic acid biphenylmethyl ester], the IC50 lay in the range of 3 to 650 nM.
Still for that read-out and setting: the same measure for `C/C(=C\c1ccc(Cc2cccnc2)cc1)C(=O)Oc1ccccc1C` [(E)-2-Methyl-3-[4-(3-pyridylmethyl)phenyl]acrylic acid 2-methylphenyl ester]: 3 to 650 nM; for `CC(Oc1ccc(Cc2cccnc2)cc1)C(=O)O` (centres unmarked) [2-[4-(3Pyridylmethyl)phenoxy]propionic acid hydrochloride]: 3 to 650 nM.
Consider `C/C(=C\c1ccc(Cc2cccnc2)c(C)c1)C(=O)O` [(E)-2-Methyl-3-[3-methyl-4-(3-pyridylmethyl)phenyl]acrylic acid hydrochloride], for which the IC50 lay in the range of 3 to 650 nM.
For `C/C(=C\c1ccc(Cc2cccnc2)cc1)C(=O)OCc1ccccc1` [(E)-2-Methyl-3-[4-(3-pyridylmethyl)phenyl]acrylic acid benzyl ester], the IC50 lay in the range of 3 to 650 nM.

For the next assay, the system named is thromboxane synthetase.
Experiment: not given
The conditions noted are these: prior-art compounds, literature reports as judged by the applicant; cited from earlier work.
With `CCCCCC(O)C=CC1C2CC(N=N2)C1CC=CCCCC(=O)O` (centres unmarked) [9,11-azo-15-hydroxyprosta-5,13-dienoic acid], the “inhibitory activity on thromboxane synthetase” value (from here on “inhibitory activity”) is reported as “very weak”.
Turning to `CC(Cc1ccc(O)c(O)c1)C(C)Cc1ccc(O)c(O)c1` (centres unmarked) [nordihydroguaiaretic acid], the “inhibitory activity” value is listed as “very weak”.
Turning to `c1c[nH]cn1` [imidazole], the “inhibitory activity” value is “very weak”.
As to `Cn1ccnc1` [1-methylimidazole], the “inhibitory activity” value was “very weak”.
As to `CCCCCC(O)C=CC1C2COC(C2)C1CC=CCCCC(=O)O` (centres unmarked) [9,11-epoxymethano-15-hydroxyprosta-5,13-dienoic acid], the “inhibitory activity” value is on record as “very weak”.
With `CCCCCCCCC1C2COC(C2)C1CCCCCCC(=O)O` (centres unmarked) [9,11-epoxymethanoprostanoic acid], the “inhibitory activity” value is “very weak”.
For the compound “sodium p-benzyl-4-[1-oxo-2-(4-chlorobenzyl)-3-phenylpropyl]phenylphosphonate [Example N-0164]”, the “inhibitory activity” value is “very weak”.
For `CC(C)c1[nH]c2ccccc2c1C(=O)c1cccnc1` [Example L-8027, 2-isopropyl-3-nicotinylindole], the “inhibitory activity” value is given as “very weak”.
Turning to `CCCCCC=CC[C@@H](C=CC=CCC=CCCCC(=O)O)OO` [HPETE, 12L-hydroperoxy-5,8,10,14-eicosatetraenoic acid], the “inhibitory activity” value was “very weak”.
